Test results as given in PMC9369794 (Molecules, 2022).
Values after ≈ are worked out from the molar mass of the structure shown.

Key:
[1] = Kinetic solubility in PBS pH 7.4; format: physicochemical; conditions: aqueous buffer, kinetic from dmso stock, kinetic solubility after 2 h, at 37 °C in PBS, nominal 250 μM, read-out: Kin.Sol.
Description: On a 96-well polypropylene plate (Greiner bio-one) 7.5 μL stock solutions were added to 292.5 μL PBS (pH 7.4) to make a solution with the nominal concentration of 250 μM. For each sample 3 replicates were measured. […] After that, each sample was transferred into a filter plate (MSSBLPC, Multiscreen Filter plate, Merck kGaA) and filtered (Vaccum Manifold, Merck kGaA, Darmstadt, Germany). The filtrates were transferred into UV-Star microplates (Greiner bio-one) and acetonitrile (AcN) was added to each well to avoid precipitation. The final solvent ratio was AcN:PBS 70:30. UV-Vis spectra were collected for each replicate by a Multiskan Sky UV-plate reader (Thermo Scientific, Waltham, MA, USA) in a wavelength range of 250–700 nm, with 1 nm steps. After blank substraction, the kinetic solubility of the samples was determined based on absorption at λmax using a 5-point calibration curve for each sample recorded in 70:30 AcN:PBS solvent.
Limit of detection (LOD) and limit of quantification (LOQ) were calculated with Equations (1) and (2) respectively, based on UV-Vis spectral data:(1) LOD=3.3×σ/s (2) LOQ=10×σ/s where the σ value in the equations stands for the standard deviation of the absorption base line at 700 nm (where no sample-specific absorption was observed). The s value is the slope of the calibration curve recorded for each sample based on their absorption at λmax (Table 4.)

[2] = BBB-specific permeability assay (BBB-PAMPA); format: in vitro ADME; conditions: PBS pH 7.4, 37 °C, read-out: BBB-PAMPA Pe
Description: In vitro, blood-brain barrier-specific (BBB) permeability studies were carried out using the PAMPA technique. First, solutions with the nominal concentration of 250 μM were prepared as described in Section 3.1. The solutions were shaken for 1 h at room temperature, at 300 rpm. For preparing the artificial BBB-specific membrane 16 mg BPLE and 8 mg cholesterol were dissolved in 600 μL dodecane. Each well of the donor plate (MultiscreenTM-IP, MAIPNTR10, pore size […], Merck kGaA) was coated with 5 μL lipid solution, and fitted into the acceptor plate containing 300 μL PBS (pH 7.4) with 2.5% DMSO, and 150–150 μL of the PBS solutions (made from the DMSO stock solutions) were put on the donor plate’s artificial membrane. The sandwich plate system was covered with a tissue of wet paper and a plastic lid to avoid evaporation of the solvent, and it was incubated at 37 °C for 4 h. In the end, the donor solutions were filtrated (Vacuum Manifold, Merck kGaA), and the initial 250 μM solutions (cD(0)), the donor (cD(t)) and acceptor solution (cA(t)) were analyzed by a Multiskan Sky UV-plate-reader (Thermo Scientific) in the wavelength range of 250–700 nm, with 1 nm steps.
BBB permeability was calculated using the effective permeability equation used for iso-pH conditions described by A. Avdeef:(3) Pe=−2.303/A·(t−τss)·(1/1+rv)·lg[−rv+(1+rv/1−MR)·cD(t)/cD(0)] […]

solubility kinetic at 2 h [1]: 123 ± 9.4 µM (≈ 28.6 µg/mL)
Papp at 4 h, 250 μM [2]: 2.97 ± 1.18 ×10⁻⁶ cm/s
Compound: COc1ccc2[nH]cc(CCNC(C)=O)c2c1 [Melatonin, melatonin, reference compound]
